Patent publication US20220233238A1, “DELIVERY CATHETER AND METHOD OF DISEASE TREATMENT” (Neurotronic, Inc., priority 2019, published 2022)
Several values for one entry are separate records, joined by “and”; a condition that tells them apart may be missing. Equal values may be shown once. Entries after “also recorded” stand apart in the source; their conditions may differ. Read-outs that look alike come from different tables or passages of the source.

Experiments:
[1] = test system: renal arteries, hepatic artery, splenic artery, and the left gastric artery; details: patient A; for Body weight: base 103 kg; for 24-Hour blood pressure, DBP / 24-Hour blood pressure, SBP: average 24-hour ambulatory; for 24-Hour blood pressure, DBP: base 109; for 24-Hour blood pressure, SBP: base 164; for High-density lipoprotein (HDL): base 39 mg/dL; for Triglycerides: base 336 mg/dL
Method: The targeted arteries for their treatment were renal arteries, hepatic artery, splenic artery, and the left gastric artery.
In the procedure, modest sedation per the institution's standard practice was used and no general anesthesia was used. The arteries were engaged using a 7F guiding catheter, introduced via the femoral artery. Angiography was performed of the arteries before intervention. All four arteries were treated in the same procedure. The treatment started at upper body arteries in the order of splenic, hepatic, left gastric, left renal, and right renal arteries. After the initial angiography survey of the hepatic artery, splenic artery and left gastric artery, the rapid-exchange version of the triple-needle single-balloon catheter was advanced through the guiding catheter and into the artery over a guiding wire.
The maximum catheter needle span diameter was about 12 mm, and the span diameter was adjustable per artery diameter. […] The function of this balloon was to center the distal head/shaft without over-stretching the artery.
The infusion time was within 10 seconds for each application. […] The treatment steps were repeated for the second treatment (balloon inflation, needle deployment, infusion ablation, needle withdrawal, balloon deflation). The total volume of the alcohol used in the two treatments was 1.2 mL for the splenic artery.
The same treatment method and procedure steps as in the treatment of the splenic artery were used for common hepatic artery ablation. The catheter was replaced with a fresh catheter for the common hepatic artery ablation. There were two treatments total at about 15 mm apart of each other (between the treatment sites) for the common hepatic artery with the same ablation dosage of 0.6 mL. The total volume of the alcohol used for the hepatic artery ablation was 1.2 mL. After the hepatic treatment, the catheter was placed into the left gastric artery for next ablation treatment. Again, the same treatment method and procedure was used, with the exception that one ablation treatment of 0.6 mL of the alcohol was applied for the left gastric artery. Angiography was performed after the withdrawal of the triple-needle balloon delivery catheter.
After the ablation treatments of the three arteries above, angiography was performed of the renal arteries before intervention. The suitable branches and main arteries were assessed and predetermined for treatment. After the assessment, the triple-needle balloon delivery catheter was advanced through the guiding catheter and over the guiding wire into the branch artery of left renal arteries and stopped just beyond the bifurcated area.

[2] = test system: hepatic, splenic, celiac, right renal and left renal arteries; details: patient B; for fasting glucose: base 186 mg/dL
Method: (§1) In another example, multiple arteries/tissues were treated for hypertension. […] Patient B had 5 years of hypertension history. Patient B went through the same procedure and ablation treatment method as patient A in Example 3.
In another example, multiple arteries/tissues were treated for diabetes.

[3] = test system: hepatic, splenic, celiac, right renal and left renal arteries; details: patient B; for average 24-hour ambulatory blood pressure, DBP: base 79; for average 24-hour ambulatory blood pressure, SBP: base 136
Method: as §1

renal artery = assay: Pre-clinical trial: renal artery ethanol ablation (renal denervation) with triple-needle single-balloon catheter
hepatic artery = assay: Pre-clinical trial: hepatic artery ethanol ablation (hepatic denervation) with triple-needle single-balloon catheter
[4] = test system: hepatic, splenic, celiac, right renal and left renal arteries; details: patient B; for Body weight: base 83 kg
Method: as §1
In another example, multiple arteries/tissues were treated for managing body weight. The patient B with 3 years of obesity history had their body weight improved after the ablation procedure. The treated multiple arteries were hepatic, splenic, celiac, right renal and left renal arteries.

[5] = maintained at 3 months follow-up

CCO [ethanol]
Body weight ([1]; 1 mo post-procedure): 95.6 kg | 24-Hour blood pressure, DBP ([1]; 1 mo): 87 mmHg | 24-Hour blood pressure, SBP ([1]; 1 mo): 140 mmHg | High-density lipoprotein (HDL) ([1]; 1 mo): 43 mg/dL | Triglycerides ([1]; 1 mo): 139 mg/dL | Body weight ([1]; 2 wk post-procedure): 96.2 kg | High-density lipoprotein (HDL) ([1]; 2 wks): 42 mg/dL | Triglycerides ([1]; 2 wks): 160 mg/dL | TG/HDL ratio ([1]; 3-month follow-up, 8.6 at baseline, normal range <5): 4.2 | 24-Hour blood pressure, DBP ([1]; 3 mo): 84 mmHg | 24-Hour blood pressure, SBP ([1]; 3 mo): 141 mmHg | HbA1c value change vs baseline ([1]; 3 months follow-up, absolute change): ~−1% | Body weight ([1]; 3 mos post-procedure): 96.2 kg | High-density lipoprotein (HDL) ([1]; 3 mos): 40 mg/dL | Triglycerides ([1]; 3 mos): 167 mg/dL | Blood sugar level, HbA1c ([1]; 3 mos, base 7.5%): 6.6% | weight loss, reduction ([1]; since week 3 (2 wk time point), maintained at 3 months): about 7% | triglyceride level reduction ([1]; two weeks follow-up): about 50% | diastolic (DBP) blood pressure drop from the baseline [1, 5]: ~20% | systolic (SBP) blood pressure drop from the baseline [1, 5]: about 14% | fasting glucose level change from baseline ([2]; 1-month follow-up): −50% | fasting glucose ([2]; 1 mo): 92 mg/dL | fasting glucose level change from baseline ([2]; 2 weeks follow-up): −32% | fasting glucose ([2]; 2 wks): 127 mg/dL | HbA1c improvement from the baseline, absolute value ([2]; 3 months after the procedure): −2.1% | HbA1c percent reduction ([2]; 3 months after the procedure, relative to baseline): ~26% | fasting glucose level reduction from the baseline ([2]; 3 months follow-up): −41% | fasting glucose ([2]; 3 mos): 110 mg/dL | Blood sugar HbA1c ([2]; 3 mos, base 8.1%): 6.0% | average 24-hour ambulatory blood pressure, DBP ([3]; 1 mo): 61 mmHg | average 24-hour ambulatory blood pressure, SBP ([3]; 1 mo): 107 mmHg | diastolic (DBP) blood pressure drop from the baseline ([3]; 1 month follow-up): ~23% | systolic (SBP) blood pressure drop from the baseline ([3]; 1 month follow-up): about 21% | average 24-hour ambulatory blood pressure, DBP ([3]; 3-mo): 66 mmHg | average 24-hour ambulatory blood pressure, SBP ([3]; 3-mo): 115 mmHg | DBP percentage drop from baseline level ([3]; 3 month follow-up): about 15% | SBP percentage drop from baseline level ([3]; 3 month follow-up): about 15% | histopathologic evaluation of renal arteries and surrounding tissues (renal artery; after ethanol ablation, FIG. 11): renal nerve injury; also recorded: severed renal nerves necrosis | renal arterial spasms (post-ablation renal angiograms) (renal artery; during and after the infusion treatment): no significant renal arterial spasms | average renal tissue NE content, treated side (renal artery; porcine renal cortex, two weeks after treatment, HPLC, control side 87 ng/g): 4.9 ng/g | reduction in renal norepinephrine concentration (renal artery; porcine, two weeks after treatment, treated side vs contralateral untreated renal artery side (control 87 ng/g), total 1.8 mL): 94% | gross necropsy (renal artery; two weeks after treatment): all treatment related organs were normal | arterial spasms (hepatic angiograms) (hepatic artery; during and after the infusion treatment, both animals): no significant arterial spasms | average liver NE concentration reduction (hepatic artery; one value per animal (two animals), two weeks after treatment, vs untreated control animal, 2 x 0.6 mL): 85% and 94% | gross necropsy (hepatic artery; two weeks after the treatment): all treatment related organs were normal | Body weight ([4]; 1 mo): 79.9 kg | initial body weight loss from the baseline ([4]; 2 weeks follow-up): −4.5% | Body weight ([4]; 2 wks): 79.3 kg | Body weight ([4]; 3 mos): 79.1 kg
